Values belong to the compound of their own block, whether it stands above or below them.
Assays:
Type in all cases: biochemical
[1] = target: T1, FlgE (flagellar hook protein) (Treponema denticola, UniProt Q9RQB6); test: ELISA of Lal crosslinking between purified FlgE subunits, dose-response
T1 sequence (Q9RQB6 11-454): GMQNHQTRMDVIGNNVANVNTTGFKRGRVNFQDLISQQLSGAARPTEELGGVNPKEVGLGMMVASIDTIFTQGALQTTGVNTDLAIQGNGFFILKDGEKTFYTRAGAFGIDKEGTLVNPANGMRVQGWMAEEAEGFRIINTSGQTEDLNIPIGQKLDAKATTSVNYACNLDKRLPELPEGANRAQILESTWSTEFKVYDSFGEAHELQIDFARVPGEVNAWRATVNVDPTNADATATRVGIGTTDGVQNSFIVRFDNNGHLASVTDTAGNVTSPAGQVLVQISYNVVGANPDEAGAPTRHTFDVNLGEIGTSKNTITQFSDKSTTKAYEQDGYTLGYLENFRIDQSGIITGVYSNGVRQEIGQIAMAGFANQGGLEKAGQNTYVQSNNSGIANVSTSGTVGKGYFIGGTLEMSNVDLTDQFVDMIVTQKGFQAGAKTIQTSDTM

[2] = target: T1, FlgE (flagellar hook protein); test: ELISA of Lal crosslinking between purified FlgE subunits
[3] = target: T1, FlgE (flagellar hook protein); test: ELISA of Lal crosslinking between purified FlgE subunits, dose-response; remark: listed apart in the source

IC50 [1]: 47.7 µM
Structure (SMILES): Oc1c(Cl)cc(Cl)c(Cl)c1Cc1c(O)c(Cl)cc(Cl)c1Cl [hexachlorophene]

IC50 [2]: 118 µM
Structure (SMILES): C=CCc1ccc(O)c(-c2ccc(O)c(CC=C)c2)c1 [honokiol]

IC50 [3]: 92 µM
Structure (SMILES): COc1cc(C(=O)NS(=O)(=O)c2ccccc2C)ccc1Cc1cn(C)c2ccc(NC(=O)OC3CCCC3)cc12 [zafirlukast]
